# Results taken from patent US5468758A, “Crystalline forms of endo-2,3-dihydro-N-(8-methyl)-8-azabicyclo[3.2.1]oct-3-yl)-2-oxo-1H-benz imidazole-1-carboxamides” (Boehringer Ingelheim Italia S.p.A., priority 1992, dated 1995).
# Structures can show the parent of a compound that is named as a salt.
# Key:
# Assay type in all cases: physicochemical
# [1] = Moisture sorption/desorption studies (hygrostat, storage at different temperatures and relative humidity); details: for water content (Table V): 11.2% RH, % on the weight of compound 1a
# Experimental: The determination of the sorption isotherms was carried out in a hygrostat.
# At suitable intervals, the sample was weighed by means of a sample balance. The atmosphere in the hygrostat and therefore around the sample of compound 1a (1b) and 2a (2b) was conditioned and kept by a saturated solutions of a suitable salt:
# Na Cl saturated solution 75.3% RH/25° C. 74.8% RH/37° C.
# KNO3 saturated solution 93.7% RH/25° C. 90.0% RH/37° C.
# At the end of the experiment, after completing the hysteresis, that is the adsorption--desorption cycle of humidity, the compound was assayed for the title and degradation products by TLC and HPLC, the physical state by DSC and water content by TGA.
# [2] = Moisture content during tablet manufacturing (mixing and tableting); details: hydrochloride monohydrate; for Moisture content: % on the weight of compound 1a
# Text: As a consequence, storage of compound 2a may be effected in normal conditions and no particular precautions are needed to avoid exposure to moisture. The titer of compound 2a, when it is stored in normal conditions, is therefore maintained at difference with compound 1a which, in the same conditions, may show different titles according to the water content. The hygroscopicity may also influence the drug title immediately after the manufacturing of tablets. In fact during the process of manufacturing the drug exposed at normal ambient conditions where it can take up moisture.
# [3] = Milling studies (FRITSCH Pulverisette 14 Rotor Speed Mill)
# Experimental: The milling process was performed by the FRITSCH Pulverisette 14 Rotor Speed Mill supplied with circular sieve stainless steel with trapezoidal 0.080 mm diameter openings. The samples were passed through the mill twice at 20.000 rpm motor speed. The sample is assayed for title and degradation products by TLC and HPLC, physical state by DSC, water content by TGA, particle size distribution by Mercury Instrusion Porosimetry. The mi 11ed compounds are formulated in capsules and tablets at very low dose level (0.5 mg) by direct mixing and direct compression manufacturing method, respectively.
# [4] = Accelerated stability tests in tablets and capsules; details: for % degradation: tablets and capsules in PVC/PVDC blister with aluminium foil, hydrochloride monohydrate
# Text: (§1) Drug stability in these final compositions may be measured in accelerated stability tests or in long term real time stability tests. In accelerated stability tests, the above pharmaceutical compositions are exposed at high temperatures at different degrees of relative humidity for a period of time. Such tests are considered to be indicative of the stability of the composition at normal conditions. In long term real time stability studies the final compositions are exposed to normal conditions of storage at ambient temperatures at different degrees of relative humidity.
# (*)according to H. Leven Berger Pharm. Act. Helv. 50 (1975) 88-91 it is
# equivalent to 2 years storage at room temperature. Tablets and capsules
# are packaged in PVC/PVDC blister with aluminium foil.
# (*)according to "Guidelines for stability studies for Human Drugs and
# Biologics" (1987) (USA/FDA) it is equivalent to 2 years at room
# temperature. Tablets and capsules are packaged in PVC/PVDC blister with […]
# [5] = Long-term real time stability tests in tablets and capsules; details: for % degradation: tablets and capsules in PVC/PVDC blister with aluminium foil, hydrochloride monohydrate
# Text: as §1
# Tablets and capsules are packaged in PVC/PVDC blister with aluminium foil
# [6] = Water loss on desiccation under vacuum; details: between room temperature and 60° C. under vacuum, most preferably 40° C., 0.1 mm Hg, 24 hours; in words
# Experimental: Compounds 2a and 2b may be prepared by dissolving the compounds 1a and 1b, as free base, in a hot aqueous solvent, preferably a hot aqueous alkanol, by adding the required amount of gaseous hydrogen chloride, filtering the resulting solution and letting it cool to room temperature. In a preferred embodiment of the process according to the invention, compound 2a is prepared by using, as an hot aqueous alkanol, hot 85% aqueous ethanol. The crystals of compound 2a may be collected by vacuum filtration and are washed with a small amount of aqueous ethanol. In a preferred embodiment of the process according to the invention, compound 2b is prepared by using, as an hot aqueous alkanol, hot 95% aqueous isopropanol. The crystals of compound 2b may be collected by vacuum filtration and are washed with a small amount of aqueous isopropanol. […] Water content may be measured by usual techniques such as the Karl Fischer test. Alternatively, compounds 2a and 2b may be conveniently prepared by dissolving the anhydrous form of compounds 1a and 1b, as hydrochloride, in hot aqueous ethanol, preferably 85% ethanol (respectively in hot aqueous isopropanol, preferably 95% isopropanol) and allowing to cool the solution at room temperature; crystals of compound 2 a (respectively 2b), separated from the cooled solution, are collected by vacuum filtration and manipulated as previously described. […]
smiles,measurement,setting,value
"CN1C2CCC1CC(NC(=O)n1c(=O)[nH]c3ccccc31)C2 (stereo not drawn) [Compound 2a, Endo-2,3-dihydro-N-(8-methyl-8-azabicyclo[3.2.1]oct-3-yl)-2-oxo-1H-benzimidazole-1-carboxamide, hydrochloride monohydrate]",water content in conditions of extreme dryness,"[1]; 11 RH, 37° C., in words",not affected
same,water content (Table V),"[1]; 37° C., 2 h",5.32%
same,water content (Table V),"[1]; 37° C., 4 h",5.31%
same,water content (Table V),"[1]; 37° C., 6 h",5.31%
same,water content (Table V),"[1]; 37° C., 21 days",5.29%
same,water content (Table V),"[1]; 37° C., time 0",5.26%
same,water content (Table III),"[1]; 37° C., 75% RH, 2 h, hydrochloride monohydrate",5.8%
same,water content (Table III),"[1]; 37° C., 75% RH, 4 h, hydrochloride monohydrate",5.75%
same,water content (Table III),"[1]; 37° C., 75% RH, 6 h, hydrochloride monohydrate",5.79%
same,water content (Table III),"[1]; 37° C., 75% RH, 1 d, hydrochloride monohydrate",5.75%
same,water content (Table III),"[1]; 37° C., 75% RH, 5 d, hydrochloride monohydrate",5.8%
same,water content (Table III),"[1]; 37° C., 75% RH, 9 d, hydrochloride monohydrate",5.76%
same,water content (Table III),"[1]; 37° C., 75% RH, 15 d, hydrochloride monohydrate",5.8%
same,water content (Table III),"[1]; 37° C., 94% RH, 2 h, hydrochloride monohydrate",5.49%
same,water content (Table III),"[1]; 37° C., 94% RH, 4 h, hydrochloride monohydrate",5.47%
same,water content (Table III),"[1]; 37° C., 94% RH, 6 h, hydrochloride monohydrate",5.53%
same,water content (Table III),"[1]; 37° C., 94% RH, 1 d, hydrochloride monohydrate",5.5%
same,water content (Table III),"[1]; 37° C., 94% RH, 5 d, hydrochloride monohydrate",5.49%
same,water content (Table III),"[1]; 37° C., 94% RH, 9 d, hydrochloride monohydrate",5.48%
same,water content (Table III),"[1]; 37° C., 94% RH, 15 d, hydrochloride monohydrate",5.48%
same,water content (Table III),"[1]; Room Temperature, 75% RH, 2 h, hydrochloride monohydrate",5.46%
same,water content (Table III),"[1]; Room Temperature, 75% RH, 4 h, hydrochloride monohydrate",5.43%
same,water content (Table III),"[1]; Room Temperature, 75% RH, 6 h, hydrochloride monohydrate",5.37%
same,water content (Table III),"[1]; Room Temperature, 75% RH, 1 d, hydrochloride monohydrate",5.41%
same,water content (Table III),"[1]; Room Temperature, 75% RH, 4 d, hydrochloride monohydrate",5.42%
same,water content (Table III),"[1]; Room Temperature, 75% RH, 8 d, hydrochloride monohydrate",5.36%
same,water content (Table III),"[1]; Room Temperature, 75% RH, 20 d, hydrochloride monohydrate",5.41%
same,water content (Table III),"[1]; Room Temperature, 94% RH, 2 h, hydrochloride monohydrate",5.49%
same,water content (Table III),"[1]; Room Temperature, 94% RH, 4 h, hydrochloride monohydrate",5.53%
same,water content (Table III),"[1]; Room Temperature, 94% RH, 6 h, hydrochloride monohydrate",5.51%
same,water content (Table III),"[1]; Room Temperature, 94% RH, 1 d, hydrochloride monohydrate",5.49%
same,water content (Table III),"[1]; Room Temperature, 94% RH, 4 d, hydrochloride monohydrate",5.44%
same,water content (Table III),"[1]; Room Temperature, 94% RH, 8 d, hydrochloride monohydrate",5.48%
same,water content (Table III),"[1]; Room Temperature, 94% RH, 20 d, hydrochloride monohydrate",5.49%
same,stability in condition of storage,"[1]; different temperatures and relative humidity, in words",stable
same,moisture absorption,"[1]; different temperatures and relative humidity, in words, hydrochloride monohydrate",do not absorb moisture
same,Moisture content,"[2]; Final (b), tableting",4.90%
same,Moisture content,"[2]; Intermediate (a), mixing",4.90%
same,Moisture content,[2]; Start,4.90%
same,water content during manufacturing,"[2]; mixing (a) and tableting (b) phases, in words",stable water content
same,particle size reduction (milling efficiency),"[3]; Mercury Porosimetry Analysis, in words",same rank order
same,stability to milling,"[3]; in words, in comparison with the anhydrous form",unexpected better stability to milling
same,percentage of degradation products after milling,"[3]; rotor speed of 20,000 rpm, hydrochloride monohydrate",0.0%
same,% degradation,"[4]; 1 month/55° C., 43200 min",0.5%
same,% degradation,"[4]; 3 months/40° C.-75% RH, 129600 min",0.5%
same,% degradation,"[4]; 3 months/55° C., 129600 min",1.6%
same,% degradation,"[4]; 6 months/40° C.-75% RH, 259200 min",1.0%
same,stability in tablets and capsules,"[4]; accelerated tests, in comparison with compounds 1a and 1b, in words",better stability
same,% degradation,"[5]; 3 months/40° C., 129600 min",0.4%
same,% degradation,"[5]; 6 months/30° C.-70% RH, 259200 min",0.1%
same,% degradation,"[5]; 6 months/40° C., 259200 min",0.6%
same,stability in tablets and capsules,"[5]; long term real time tests, in comparison with compounds 1a and 1b, in words",better stability
same,loss of water content on desiccation,[6],without any appreciable loss of water content
